As for `CS(=O)(=O)C(C#N)=Cc1ccc2[nH]ccc2c1` [Example 3, 3-(1 H-indol-5-yl)-2-methanesulfonylacrylonitrile], the melting point (as a rule, the temperature of the solid-liquid transition) lay in the range of 184 to 185 °C.

`N#CC(=Cc1ccc2[nH]ccc2c1)S(=O)(=O)c1ccc([N+](=O)[O-])cc1` [Example 2, 3-(1H-indol-5-yl)-2-(4-nitrobenzenesulfonyl)acrylonitrile] displayed a melting point of 219 to 221 °C.

These data come from patent US20080113944A1, “Novel Indole Derivatives” (Novo Nordisk A/S, priority 2004, published 2008).
